Results reported in patent publication US20220380341A1, “INHIBITORS OF HIV-1 NEF FOR THE TREATMENT OF HIV DISEASE” (priority 2018, published 2022).
Like-named read-outs stand apart in the source and are kept apart here.

Legend:
HIV-1NL4-3 = test: HIV-1 infectivity assay in TZM-bl reporter cell line (LTR-luciferase, 48 h); assay type: cell-based; settings: Human immunodeficiency virus 1, TZM-bl
In short: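 Compounds were tested at 1 μM in TZM-bl cells infected with HIV-1NL4-3. Infectivity was read as luciferase signal 48 h after infection and expressed as percent inhibition, normalized between DMSO-treated wild-type infection (0%) and DMSO-treated Nef-defective HIV-1 infection (100% of the Nef-dependent effect).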

TZM-bl cell line = assay type: cell-based; settings: human, 1 μM
In short: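 TZM-bl cells (HIV-1 LTR-luciferase) infected with HIV-1NL4-3 with compound at 1 μM; luciferase read 48 h later. Percent inhibition normalized to DMSO wild-type infection (0%) and Nef-defective HIV-1 infection (100% of Nef-dependent effect). Viability in uninfected TZM-bl cells by Cell Titer Blue.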

HIV-1 NefNL4-3 = HIV-1 NefNL4-3 (Human immunodeficiency virus type 1 group M subtype B, UniProt P03406, A33V/T15A/T51N/V11I); test: Surface plasmon resonance binding to recombinant full-length Nef (NL4-3); settings: for RU30/RUNef (extent of binding): response units at 30 μM relative to Nef immobilized on the SPR chip; for Nef NL4-3 Binding, SPR 1:1 or 2-site fitting KD1: 1:1 Langmuir fit where the KD2 cell says '1 to 1 fitting', else 2-site fit
[1] = 1.0 μM, TZM-bl reporter cell line, Table 4, read-out: % Infectivity Inhibition
[2] = 48 h, Table 1, TZM-bl cells, 1 μM, 48 h, 100% = Nef-defective HIV-1, read-out: HIV-1 Infectivity % Inhibition Norm. to Δ-Nef @ 1 μM
[3] = KD, M, Table 4, SPR fit 2-step induced fit, KD = koff/kon × koff2/(koff2 + kon2)
[4] = Nef NL4-3 Binding, SPR 2-state fitting KD, Table 1, 2-step induced-fit model
[5] = Table 4, 2-step induced fit, T = 1/koff2
[6] = read-out: Nef NL4-3 Binding, SPR 1:1 or 2-site fitting KD2, Table 1, 2-site fit, second component

SMILES | inhibition at 1 µM (HIV-1NL4-3; [1]) | inhibition at 1 µM (HIV-1NL4-3; [2]) | % Cell Viability (TZM-bl cell line) | Percent Viability @ 1 μM (TZM-bl cells) (TZM-bl cell line) | Kd (HIV-1 NefNL4-3) | Kd (HIV-1 NefNL4-3; KD, M, Table 4, SPR fit 1:1 Langmuir, KD = koff/kon) | T, minutes (residence time) (HIV-1 NefNL4-3; Table 4, 1:1 Langmuir fit, T = 1/koff) | RU30/RUNef (extent of binding) (HIV-1 NefNL4-3) | Kd (HIV-1 NefNL4-3; [3]) | Kd (HIV-1 NefNL4-3; [4]) | T, minutes (residence time) (HIV-1 NefNL4-3; [5]) | Kd (HIV-1 NefNL4-3; [6]) | Nef NL4-3 Binding, SPR 1:1 or 2-site fitting KD1 (HIV-1 NefNL4-3; Table 1)
CC(=O)N1CCC(CCc2c(-c3ccc(C(F)(F)F)cn3)nn(-c3nc4ccccc4[nH]3)c2O)CC1 [Compound I-714, 1-(4-{2-[1-(1H-1,3-benzodiazol-2-yl)-5-hydroxy-3-[5-(trifluoromethyl)pyridin-2-yl]-1H-pyrazol-4-yl]ethyl}piperidin-1-yl)ethan-1-one] | 63.6% | 63.6% | 98.3% | 98.3% | 1110 nM | 1110 nM | 3.64E + 00 minutes | 1.32E- 03 |  |  |  |  | 
Cc1ccn(CCc2c(-c3ccc(C(F)(F)F)cc3)nn(-c3nc4ccc(Cl)cc4[nH]3)c2O)n1 [Compound I-163, 1-(6-chloro-1H-1,3-benzodiazol-2-yl)-4-[2-(3-methyl-1H-pyrazol-1-yl)ethyl]-3-[4-(trifluoromethyl)phenyl]-1H-pyrazol-5-ol] | 0.3% | 0.3% | 96.6% | 96.6% | 1010 nM |  |  | 4.48E- 03 | 5820 nM | 5820 nM | 1.44E + 01 minutes |  | 
O=C1CCCN1CCc1c(-c2ccc(C(F)(F)F)cc2)nn(-c2nc3ccccc3[nH]2)c1O [Compound I-132, 1-{2-[1-(1H-1,3-benzodiazol-2-yl)-5-hydroxy-3-[4-(trifluoromethyl)phenyl]-1H-pyrazol-4-yl]ethyl}pyrrolidin-2-one] | 15.7% | 15.7% | 96.5% | 96.5% | 61.8 nM |  |  | 5.62E- 03 | 1700 nM | 1700 nM | 5.46E + 00 minutes | 8010 nM | 
CC(C)S(=O)(=O)N1CCC(c2nn(-c3nc4ccccc4[nH]3)c(O)c2CCc2ccc(F)cc2)CC1 [Compound I-751, 1-(1H-1,3-benzodiazol-2-yl)-4-[2-(4-fluorophenyl)ethyl]-3-[1-(propane-2-sulfonyl)piperidin-4-yl]-1H-pyrazol-5-ol] |  | 22.3% |  | 101.1% | 560 nM |  |  |  |  |  |  |  | 
Oc1c(CCc2ccc(F)cc2)c(-c2ccccc2)nn1-c1nc2cc(Cl)ccc2[nH]1 [Compound I-165, 1-(5-chloro-1H-1,3-benzodiazol-2-yl)-4-[2-(4-fluorophenyl)ethyl]-3-phenyl-1H-pyrazol-5-ol] | 25.3% | 25.3% | 89.6% | 89.6% | 689 nM |  |  | 4.14E- 02 | 636 nM | 636 nM | 5.10E + 00 minutes |  | 
CS(=O)(=O)c1ccc(-c2nn(-c3nc4cc(F)ccc4[nH]3)c(O)c2CCC2CCOCC2)cc1 [Compound I-169, 1-(5-fluoro-1H-1,3-benzodiazol-2-yl)-3-(4-methanesulfonylphenyl)-4-[2-(oxan-4-yl)ethyl]-1H-pyrazol-5-ol] |  | -4.8% |  | 98.7% | 465 nM |  |  |  |  | 7400 nM |  | 1810 nM | 
CO[C@H](C)C(=O)N1CCC(c2nn(-c3nc4ccccc4[nH]3)c(O)c2CCc2ccc(F)cc2)CC1 [Compound I-727, (2R)-1-{4-[1-(1H-1,3-benzodiazol-2-yl)-4-[2-(4-fluorophenyl)ethyl]-5-hydroxy-1H-pyrazol-3-yl]piperidin-1-yl}-2-methoxypropan-1-one] |  | 8.7% |  | 95.1% |  |  |  |  |  |  |  |  | No Interaction
Cn1cc(-c2nn(-c3nc4ccccc4[nH]3)c(O)c2CCc2ccc(F)cc2)ccc1=O [Compound I-134, 5-[1-(1H-1,3-benzodiazol-2-y1)-4-[2-(4-fluorophenyl)ethyl]-5-hydroxy-1H-pyrazol-3-yl]-1-methyl-1,2-dihydropyridin-2-one] |  | 45.8% |  | 100.5% |  |  |  |  |  |  |  |  | No Interaction
CS(=O)(=O)N1CCC(Cc2nn(-c3nc4ccccc4[nH]3)c(O)c2CCc2ccc(F)cc2)CC1 [Compound I-771, 1-(1H-1,3-benzodiazol-2-yl)-4-[2-(4-fluorophenyl)ethyl]-3-[(1-methanesulfonylpiperidin-4-yl)methyl]-1H-pyrazol-5-ol] |  | 13.1% |  | 100.1% | 965 nM |  |  |  |  |  |  |  | 
CS(=O)(=O)c1cccc(-c2nn(-c3nc4cccnc4[nH]3)c(O)c2CCc2ccc(F)cc2)c1 [Compound I-311, 4-[2-(4-fluorophenyl)ethyl]-1-{3H-imidazo[4,5-b]pyridin-2-yl}-3-(3-methanesulfonylphenyl)-1H-pyrazol-5-ol] |  | 29.8% |  | 94.5% | 1010 nM |  |  |  |  |  |  |  | 
O=C(OCc1ccccc1)N1CCC(c2c(-c3ccc(C(F)(F)F)cc3)nn(-c3nc4ccccc4[nH]3)c2O)CC1 [Compound I-164, benzyl 4-[1-(1H-1,3-benzodiazol-2-yl)-5-hydroxy-3-[4-(trifluoromethyl)phenyl]-1H-pyrazol-4-yl]piperidine-1-carboxylate] |  | 64.9% |  | 93.6% |  |  |  |  |  |  |  |  | No Interaction
CS(=O)(=O)c1ccc(-c2nn(-c3nc4cc(Cl)ccc4[nH]3)c(O)c2CCC2CCOCC2)cc1 [Compound I-168, 1-(5-chloro-1H-1,3-benzodiazol-2-yl)-3-(4-methanesulfonylphenyl)-4-[2-(oxan-4-yl)ethyl]-1H-pyrazol-5-ol] | 19.2% | 19.2% | 97.9% | 97.9% | 751 nM |  |  | 6.97E- 03 | 2730 nM | 2730 nM | 4.96E + 00 minutes | 4970 nM | 
CCOC(=O)N1CCC(c2nn(-c3nc4ccccc4[nH]3)c(O)c2CCC2CCOCC2)CC1 [Compound I-723, ethyl 4-[1-(1H-1,3-benzodiazol-2-yl)-5-hydroxy-4-[2-(oxan-4-yl)ethyl]-1H-pyrazol-3-yl]piperidine-1-carboxylate] | 0% | -18.1% | 92.2% | 92.2% | 2100 nM |  |  | 9.19E- 03 | 9090 nM | 9090 nM | 5.21E + 00 minutes | 12200 nM | 
Oc1c(CCc2ccc(F)cc2)c(-c2ccc(F)cc2)nn1-c1nc2cc(Cl)ccc2[nH]1 [Compound I-172, 1-(5-chloro-1H-1,3-benzodiazol-2-yl)-3-(4-fluoropheny1)-4-[2-(4-fluorophenyl)ethyl]-1H-pyrazol-5-ol] | 56% | 56% | 96.5% | 96.5% | 250 nM |  |  | 4.28E- 02 | 69.3 nM | 69.3 nM | 1.73E + 01 minutes |  | 
